Laboratory results from patent publication US20240390256A1, “A DEODORANT COMPOSITION” (priority 2021, published 2024).

Test system: S. hominis ATCC 27844
Experiment: Malodour assay using lead acetate method (H2S formation by S. hominis, 96-well plate)
Assay type: cell-based
Details: for (%) Malodour generated: bacterial control = 100; for % malodour generation as compared to pectin: malodour assay, carbohydrates at 2 wt. %
Method: The test organisms was grown on TSA (Tryptic Soya Agar) plates overnight (22±2 hr). The organism was not more than 3 passages removed from the original source. The cell number was adjusted by re-suspending it in a suitable amount of physiological saline sufficient to achieve the required cell number based on optical density of the cells. The optical density (OD at 620 nm) of the cells were standardized to the cell number for the test organism using a spectrophotometer. A minimum final suspension of 1.0×10^8 CFU/mL was achieved by adjusting the OD to 0.2 in saline for the malodour assay. A 1% lead acetate solution was made in distilled water. Whatmann filter paper (cut in the size that could be placed over the wells of a well plate) was dipped in the lead acetate solution. The excess solution was drained and allowed to dry in Laminar Air Flow for 30 minutes. Stock solutions of the actives were prepared for performing the assay. A 0.5% citrus pectin was prepared by weighing 0.05 g of pectin in 10 ml sterile distilled water under magnetic stirrer for 30 min. A 1:10 dilution of this stock was prepared in sterile distilled water to achieve a final stock of 0.05% citrus pectin to perform the assay. A 1% stock of niacinamide was prepared by weighing 0.1 g in 10 ml sterile distilled water. The malodour assay was adapted from the method of Moore et al, 2003 and modified into a 96 well plate format. 100 μl Tryptic Soy Broth (TSB) with 0.1% L-cysteine-HCl was added into the wells of the 96-well plate. 20 μl of 0.2 OD culture of S. hominis was then added into the wells. The actives were added from the stock solutions at required concentrations and made up the volume to 200 μl with addition of sterile distilled water. The assay was done in triplicates. The lead acetate paper was placed over the wells and the lid of the 96-well plate was closed and incubated at 37° C. incubator overnight. After the incubation time, the dark coloration of the lead acetate paper was observed. Visible blackening of lead acetate in the area over the well indicated the presence of H2S. The intensity of the colour was recorded using a reflectometer as L*a*b* values. The difference between the initial and final L*a*b* values ΔE, was used to quantify malodour formation. The percentage malodour was calculated from ΔE measured using the above assay for the various actives or combinations.

[1] = Table 2, comparative carbohydrates at 2 wt. %
[2] = Table 1, active wt % as given per example, S. hominis in TSB with 0.1% L-cysteine-HCl, 37° C. overnight, calculated from ΔE

| Structure (SMILES) | (%) Malodour generated [1] [%] | % malodour generation as compared to pectin (Table 2) | (%) Malodour generated [2] [%] |
| --- | --- | --- | --- |
| OC[C@H]1O[C@@](CO)(O[C@H]2O[C@H](CO)[C@@H](O)[C@H](O)[C@H]2O)[C@@H](O)[C@@H]1O [F, Sucrose] | 100 | higher | – |
| NC(=O)c1cccnc1 [C, Niacinamide] | – | – | 89 |
| NC(=O)c1cccnc1 [D, Niacinamide] | – | – | 71 |
| O=C[C@H](O)[C@@H](O)[C@@H](O)[C@H](O)CO [J, Galactose] | 90 | higher | – |
